In patent publication US20040176387A1, “Method of treating peripheral vascular diseases, peripheral neuropathies, and autonomic neuropathies” (Pfizer Inc, priority 2000, published 2004):

Tests used:
Type in all cases: in vivo, human
[1] = Sildenafil treatment of diabetic foot ulcer in patients (case reports)
Description: During the treatment of-the erectile dysfunction it was noted that the foot ulcer was healing. This foot ulcer began approximately two years prior and the patient had been through vascular studies, had seen vascular surgeons, podiatrists, and had been in wound care clinics with minimal results at best. They had also been hospitalized for approximately a month on IV antibiotics, etc. and the threat was very real that the patient was going to require a below the knee amputation. The ulcer would appear to be healing at times only to reoccur to its pretreatment size and depth.

[2] = Sildenafil treatment of erectile dysfunction in patients (case reports)
Procedure: Patient #2 was suffering from chronic changes of both lower extremities secondary to peripheral vascular disease and diabetes mellitus. […] Patient #4 suffered from erectile dysfunction. They also suffered from onychiomycosis (fungal infection of the nailbed). They were placed on sildenafil treatment taking one 50 mg pill on an as-needed basis.

[3] = Sildenafil treatment of chronic lower extremity changes secondary to peripheral vascular disease (case report); conditions: Patient #2; diabetes mellitus
Description: Patient #2 was suffering from chronic changes of both lower extremities secondary to peripheral vascular disease and diabetes mellitus.

[4] = system: onychiomycosis (fungal infection of the nailbed); experiment: Sildenafil treatment of onychiomycosis (fungal infection of the nailbed) (case report)
Description: In regards to other uses of cycli guanosine 3′,5′-monophosphate type five (cGMP PDE5) inhibitors, including the compound sildenafil, for which we have shown is effective in the treatment of diabetic foot ulcers, it is also within the concept of the present invention to treat other peripheral vascular diseases such as Raynaud's Phenomenon, including CREST syndrome, autoimmune diseases such as systemic lupus erythematosis, rheumatoid diseases and diabetic retinopathies. The treatment of the present invention would also be beneficial in peripheral and autonomic neuropathies or any other disease entity that results from small vessel disease and directly large vessel disease. […] The patient in this case was requesting treatment for erectile dysfunction and again the inventor discovered this unexpected beneficial result. The inventor has observed such results in varied diseases which have the common element of peripheral vascular disease or peripheral neuropathy. The beneficial effect of the method is believed to be due to increase vascular flow of the small vessels which aided the body in healing itself. Patient #4 suffered from erectile dysfunction. They also suffered from onychiomycosis (fungal infection of the nailbed). They were placed on sildenafil treatment taking one 50 mg pill on an as-needed basis.

[5] = Patient #4, one 50 mg pill on an as-needed basis

CCCc1nn(C)c2c(=O)[nH]c(-c3cc(S(=O)(=O)N4CCN(C)CC4)ccc3OCC)nc12 [sildenafil, 5-[2-ethoxy-5-(4-methylpiperazin 1-ylsulphonyl)-phenyl]-1,6-dihydro-1-methyl-3-propylpyrazolo [4,3-d] pyrimidine-7-one]
diabetic foot ulcer size after sildenafil treatment began ([1]; Patient #1, insulin dependent diabetic, sildenafil taken for erectile dysfunction, before daily dosing): the ulcer was decreasing in the size | resolution of diabetic foot ulcer ([1]; Patient #1, 50 mg of sildenafil once a day, ulcer began approximately two years prior): complete resolution of the diabetic food ulcer in one month | reoccurrence of diabetic foot ulcer ([1]; Patient #1, continued on 50 mg once a day for the past two years): without reoccurrence | effectiveness in the treatment of foot ulcers related to diabetes ([1]; general statement, diabetic patients): very effective | erectile dysfunction ([2]; Patient #2, diabetes mellitus and peripheral vascular disease): significantly improve | erectile dysfunction [2, 5]: improved | chronic changes of both lower extremities secondary to peripheral vascular disease [3]: significantly improved or resolved completely | fungal infection (onychiomycosis) [4, 5]: cured | onychiomycosis, particularly of the lower extremity ([4]; treated exclusively with sildenafil, without antifungal medication): resolved completely
